Measurements taken from PMC7180948, “New Insights into 4-Anilinoquinazolines as Inhibitors of Cardiac Troponin I–Interacting Kinase (TNNi3K)” (Molecules, 2020).
Like-named read-outs stand apart in the source and are kept apart here. Values belong to the molecule of their own block, whether it stands above or below them.

Tests used:
Assay in all cases: biochemical
[1] = target: T1, ABL1(H396P)-nonphosphorylated (Homo sapiens, UniProt P00519, H396P); parameters: KINOMEscan competition binding panel (Eurofins DiscoverX), single concentration, % inhibition; conditions: read-out: 7 at 1 µM % inhibition
T1 construct: nonphosphorylated
Description: (§1) KinomeScan® Assay on 7 and 15 was performed as previously described by EuroFins DiscoverX [24]. GSK114 (7) and 15 were submitted for a KINOMEscan® assay to explore the selectivity profile across >400 human kinases at a compound concentration of 1 µM. […] GSK114 (7) is a narrow-spectrum TNNi3K inhibitor but has some potent off-targets including GAK which has been previously reported for this chemotype. […] If utilized together this set of compounds could be useful to investigate TNNi3K biology.

ABL2 = ABL2 (Homo sapiens, UniProt P42684); parameters: KINOMEscan competition binding panel (Eurofins DiscoverX), single concentration, % inhibition; conditions: read-out: 7 at 1 µM % inhibition
Description: as §1

ACVRL1 = ACVRL1 (Homo sapiens, UniProt P37023); parameters: KINOMEscan competition binding panel (Eurofins DiscoverX), single concentration, % inhibition; conditions: read-out: 7 at 1 µM % inhibition
Description: as §1

EGFR(L858R) = EGFR(L858R) (Homo sapiens, UniProt P00533, L858R); parameters: KINOMEscan competition binding panel (Eurofins DiscoverX), single concentration, % inhibition; conditions: read-out: 7 at 1 µM % inhibition
Description: as §1

FGFR3 = FGFR3 (Homo sapiens, UniProt P22607); parameters: KINOMEscan competition binding panel (Eurofins DiscoverX), single concentration, % inhibition; conditions: read-out: 7 at 1 µM % inhibition
Description: as §1

INSR [2] = target: T2, INSR (Homo sapiens, UniProt P06213); parameters: KINOMEscan competition binding panel (Eurofins DiscoverX), single concentration, % inhibition; conditions: read-out: 7 at 1 µM % inhibition
T2 sequence (P06213 whole entry): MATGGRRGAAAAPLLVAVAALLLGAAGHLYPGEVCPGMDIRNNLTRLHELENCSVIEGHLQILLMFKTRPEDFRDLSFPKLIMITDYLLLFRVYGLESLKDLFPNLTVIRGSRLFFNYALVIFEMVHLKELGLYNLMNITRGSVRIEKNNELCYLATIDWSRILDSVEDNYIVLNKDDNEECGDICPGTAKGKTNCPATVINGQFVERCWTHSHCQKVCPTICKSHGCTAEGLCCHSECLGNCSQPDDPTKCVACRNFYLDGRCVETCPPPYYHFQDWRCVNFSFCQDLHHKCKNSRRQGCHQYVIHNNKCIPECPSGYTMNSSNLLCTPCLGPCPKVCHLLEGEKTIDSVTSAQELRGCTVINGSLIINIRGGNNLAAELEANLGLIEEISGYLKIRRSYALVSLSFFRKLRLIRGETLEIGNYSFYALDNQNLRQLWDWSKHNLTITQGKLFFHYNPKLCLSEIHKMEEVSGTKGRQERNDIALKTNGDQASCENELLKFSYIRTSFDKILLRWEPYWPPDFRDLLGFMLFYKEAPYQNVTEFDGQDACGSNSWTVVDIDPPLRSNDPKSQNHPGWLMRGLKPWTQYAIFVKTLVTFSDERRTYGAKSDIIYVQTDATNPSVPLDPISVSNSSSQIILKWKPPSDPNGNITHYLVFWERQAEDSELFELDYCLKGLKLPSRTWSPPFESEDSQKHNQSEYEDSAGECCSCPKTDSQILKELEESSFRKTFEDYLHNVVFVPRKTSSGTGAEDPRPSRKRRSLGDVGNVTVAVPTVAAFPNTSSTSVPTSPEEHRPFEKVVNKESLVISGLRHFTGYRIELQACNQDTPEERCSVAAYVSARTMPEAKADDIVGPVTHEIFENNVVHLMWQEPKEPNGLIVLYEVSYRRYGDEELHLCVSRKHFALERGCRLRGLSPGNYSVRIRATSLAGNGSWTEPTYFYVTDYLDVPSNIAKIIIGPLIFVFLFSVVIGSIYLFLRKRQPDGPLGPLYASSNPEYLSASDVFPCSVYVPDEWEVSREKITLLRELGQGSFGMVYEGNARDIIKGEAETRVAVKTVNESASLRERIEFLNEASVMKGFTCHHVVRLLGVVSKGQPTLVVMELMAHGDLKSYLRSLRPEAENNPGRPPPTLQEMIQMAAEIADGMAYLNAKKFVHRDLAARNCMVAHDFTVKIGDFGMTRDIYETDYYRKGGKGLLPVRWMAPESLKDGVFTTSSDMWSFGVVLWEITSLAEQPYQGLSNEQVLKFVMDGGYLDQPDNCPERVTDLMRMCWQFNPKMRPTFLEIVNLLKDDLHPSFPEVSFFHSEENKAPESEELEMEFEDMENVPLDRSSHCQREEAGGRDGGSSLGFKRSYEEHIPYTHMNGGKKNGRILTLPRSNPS
Description: as §1

IRAK1 = IRAK1 (Homo sapiens, UniProt P51617); parameters: KINOMEscan competition binding panel (Eurofins DiscoverX), single concentration, % inhibition; conditions: read-out: 7 at 1 µM % inhibition
Sequence of IRAK1 (P51617 whole entry): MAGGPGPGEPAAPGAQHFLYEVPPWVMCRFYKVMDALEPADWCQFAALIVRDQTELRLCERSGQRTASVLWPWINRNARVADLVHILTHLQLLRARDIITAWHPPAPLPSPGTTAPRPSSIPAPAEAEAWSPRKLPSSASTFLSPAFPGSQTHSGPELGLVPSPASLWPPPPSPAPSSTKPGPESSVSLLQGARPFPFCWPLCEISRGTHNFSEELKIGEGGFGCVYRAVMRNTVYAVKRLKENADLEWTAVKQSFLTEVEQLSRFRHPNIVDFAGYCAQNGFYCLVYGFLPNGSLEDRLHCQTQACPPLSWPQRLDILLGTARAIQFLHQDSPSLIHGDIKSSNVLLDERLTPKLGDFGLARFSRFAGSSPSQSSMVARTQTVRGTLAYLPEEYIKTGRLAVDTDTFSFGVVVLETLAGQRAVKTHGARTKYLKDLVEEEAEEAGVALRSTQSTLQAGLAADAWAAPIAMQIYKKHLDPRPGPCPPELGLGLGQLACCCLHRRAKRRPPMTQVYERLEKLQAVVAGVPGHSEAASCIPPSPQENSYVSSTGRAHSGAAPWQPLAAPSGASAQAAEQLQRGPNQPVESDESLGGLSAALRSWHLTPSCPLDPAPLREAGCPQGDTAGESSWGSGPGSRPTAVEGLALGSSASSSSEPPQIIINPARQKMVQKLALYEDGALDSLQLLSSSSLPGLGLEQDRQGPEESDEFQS
Description: as §1

IRAK4 = IRAK4 (Homo sapiens, UniProt Q9NWZ3); parameters: KINOMEscan competition binding panel (Eurofins DiscoverX), single concentration, % inhibition; conditions: read-out: 7 at 1 µM % inhibition
Sequence of IRAK4 (Q9NWZ3 whole entry): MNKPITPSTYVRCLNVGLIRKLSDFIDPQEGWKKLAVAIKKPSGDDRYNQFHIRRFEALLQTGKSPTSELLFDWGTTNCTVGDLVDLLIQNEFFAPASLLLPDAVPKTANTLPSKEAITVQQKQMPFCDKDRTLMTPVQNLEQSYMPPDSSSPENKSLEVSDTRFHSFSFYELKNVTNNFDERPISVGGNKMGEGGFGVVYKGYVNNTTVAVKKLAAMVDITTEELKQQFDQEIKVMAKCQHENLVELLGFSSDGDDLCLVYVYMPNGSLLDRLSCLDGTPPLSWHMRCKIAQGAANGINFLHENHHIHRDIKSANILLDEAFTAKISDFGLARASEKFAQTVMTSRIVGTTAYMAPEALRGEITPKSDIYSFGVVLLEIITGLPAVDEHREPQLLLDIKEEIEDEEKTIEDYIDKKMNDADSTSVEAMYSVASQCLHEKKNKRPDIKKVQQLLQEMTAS
Description: as §1

LATS2 = LATS2 (Homo sapiens, UniProt Q9NRM7); parameters: KINOMEscan competition binding panel (Eurofins DiscoverX), single concentration, % inhibition; conditions: read-out: 7 at 1 µM % inhibition
Sequence of LATS2 (Q9NRM7 whole entry): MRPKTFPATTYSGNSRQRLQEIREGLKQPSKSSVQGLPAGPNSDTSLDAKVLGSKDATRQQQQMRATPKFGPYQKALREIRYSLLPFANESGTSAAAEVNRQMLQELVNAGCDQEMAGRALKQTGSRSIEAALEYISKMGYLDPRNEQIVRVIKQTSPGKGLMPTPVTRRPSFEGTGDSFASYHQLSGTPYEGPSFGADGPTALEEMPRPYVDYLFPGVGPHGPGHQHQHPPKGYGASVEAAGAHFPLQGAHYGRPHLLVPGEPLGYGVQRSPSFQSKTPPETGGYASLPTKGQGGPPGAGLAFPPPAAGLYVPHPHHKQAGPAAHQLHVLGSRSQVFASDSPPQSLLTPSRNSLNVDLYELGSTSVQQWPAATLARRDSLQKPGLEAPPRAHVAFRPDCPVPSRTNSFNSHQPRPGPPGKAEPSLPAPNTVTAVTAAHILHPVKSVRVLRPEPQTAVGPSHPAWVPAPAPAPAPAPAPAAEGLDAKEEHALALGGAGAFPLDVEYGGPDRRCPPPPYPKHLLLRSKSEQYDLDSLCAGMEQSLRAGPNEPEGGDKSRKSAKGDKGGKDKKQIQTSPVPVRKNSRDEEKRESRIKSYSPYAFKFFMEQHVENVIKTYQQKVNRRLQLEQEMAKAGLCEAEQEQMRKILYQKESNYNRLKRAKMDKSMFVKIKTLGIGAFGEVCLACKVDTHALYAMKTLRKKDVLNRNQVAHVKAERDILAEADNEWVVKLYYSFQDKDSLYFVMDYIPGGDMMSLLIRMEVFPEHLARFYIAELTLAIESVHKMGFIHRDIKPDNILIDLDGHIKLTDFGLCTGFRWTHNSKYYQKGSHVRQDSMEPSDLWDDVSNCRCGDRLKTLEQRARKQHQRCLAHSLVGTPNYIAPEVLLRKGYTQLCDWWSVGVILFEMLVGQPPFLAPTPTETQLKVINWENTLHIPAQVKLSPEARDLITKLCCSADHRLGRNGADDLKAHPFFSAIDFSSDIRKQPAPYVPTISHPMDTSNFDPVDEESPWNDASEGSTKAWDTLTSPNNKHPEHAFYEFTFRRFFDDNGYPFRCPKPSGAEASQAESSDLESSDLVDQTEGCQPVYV
Description: as §1

LRRK2(G2019S) = LRRK2(G2019S) (Homo sapiens, UniProt Q5S007, G2019S); parameters: KINOMEscan competition binding panel (Eurofins DiscoverX), single concentration, % inhibition; conditions: read-out: 7 at 1 µM % inhibition
Description: as §1

PIK3C2G = PIK3C2G (Homo sapiens, UniProt O75747); parameters: KINOMEscan competition binding panel (Eurofins DiscoverX), single concentration, % inhibition; conditions: read-out: 7 at 1 µM % inhibition
Description: as §1

PIK4CB = target: T3, PIK4CB (Homo sapiens, UniProt Q9UBF8); parameters: KINOMEscan competition binding panel (Eurofins DiscoverX), single concentration, % inhibition; conditions: read-out: 7 at 1 µM % inhibition
T3 construct: gene PI4KB
Description: as §1

PRKD2 = PRKD2 (Homo sapiens, UniProt Q9BZL6); parameters: KINOMEscan competition binding panel (Eurofins DiscoverX), single concentration, % inhibition; conditions: read-out: 7 at 1 µM % inhibition
Description: as §1

SIK2 = SIK2 (Homo sapiens, UniProt Q9H0K1); parameters: KINOMEscan competition binding panel (Eurofins DiscoverX), single concentration, % inhibition; conditions: read-out: 7 at 1 µM % inhibition
Description: as §1

SRMS = SRMS (Homo sapiens, UniProt Q9H3Y6); parameters: KINOMEscan competition binding panel (Eurofins DiscoverX), single concentration, % inhibition; conditions: read-out: 7 at 1 µM % inhibition
Description: as §1

CIT = CIT (Homo sapiens, UniProt O14578); parameters: KINOMEscan competition binding panel (Eurofins DiscoverX), single concentration, percent inhibition; conditions: read-out: 15 at 1 µM % inhibition
Procedure, shortened: (§2)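 Binding was profiled in the KINOMEscan panel of over 400 human kinases, with each compound tested at a single concentration of 1 µM to map selectivity.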

DYRK1A = DYRK1A (Homo sapiens, UniProt Q13627); parameters: KINOMEscan competition binding panel (Eurofins DiscoverX), single concentration, percent inhibition; conditions: read-out: 15 at 1 µM % inhibition
Procedure, shortened: as §2

INSR [3] = target: T2, INSR; parameters: KINOMEscan competition binding panel (Eurofins DiscoverX), single concentration, percent inhibition; conditions: read-out: 15 at 1 µM % inhibition
Procedure, shortened: as §2

[4] = target: T4, JAK2(JH1domain-catalytic) (Homo sapiens, UniProt O60674); parameters: KINOMEscan competition binding panel (Eurofins DiscoverX), single concentration, percent inhibition; conditions: read-out: 15 at 1 µM % inhibition
T4 construct: JH1domain-catalytic
Procedure, shortened: as §2

MAP3K1 = MAP3K1 (Homo sapiens, UniProt Q13233); parameters: KINOMEscan competition binding panel (Eurofins DiscoverX), single concentration, percent inhibition; conditions: read-out: 15 at 1 µM % inhibition
Procedure, shortened: as §2

NIK = target: T5, NIK (Homo sapiens, UniProt Q99558); parameters: KINOMEscan competition binding panel (Eurofins DiscoverX), single concentration, percent inhibition; conditions: read-out: 15 at 1 µM % inhibition
T5 construct: gene MAP3K14
Procedure, shortened: as §2

PAK7 = target: T6, PAK7 (Homo sapiens, UniProt Q9P286); parameters: KINOMEscan competition binding panel (Eurofins DiscoverX), single concentration, percent inhibition; conditions: read-out: 15 at 1 µM % inhibition
T6 construct: gene PAK5
Procedure, shortened: as §2

PRKD3 = PRKD3 (Homo sapiens, UniProt O94806); parameters: KINOMEscan competition binding panel (Eurofins DiscoverX), single concentration, percent inhibition; conditions: read-out: 15 at 1 µM % inhibition
Sequence of PRKD3 (O94806 whole entry): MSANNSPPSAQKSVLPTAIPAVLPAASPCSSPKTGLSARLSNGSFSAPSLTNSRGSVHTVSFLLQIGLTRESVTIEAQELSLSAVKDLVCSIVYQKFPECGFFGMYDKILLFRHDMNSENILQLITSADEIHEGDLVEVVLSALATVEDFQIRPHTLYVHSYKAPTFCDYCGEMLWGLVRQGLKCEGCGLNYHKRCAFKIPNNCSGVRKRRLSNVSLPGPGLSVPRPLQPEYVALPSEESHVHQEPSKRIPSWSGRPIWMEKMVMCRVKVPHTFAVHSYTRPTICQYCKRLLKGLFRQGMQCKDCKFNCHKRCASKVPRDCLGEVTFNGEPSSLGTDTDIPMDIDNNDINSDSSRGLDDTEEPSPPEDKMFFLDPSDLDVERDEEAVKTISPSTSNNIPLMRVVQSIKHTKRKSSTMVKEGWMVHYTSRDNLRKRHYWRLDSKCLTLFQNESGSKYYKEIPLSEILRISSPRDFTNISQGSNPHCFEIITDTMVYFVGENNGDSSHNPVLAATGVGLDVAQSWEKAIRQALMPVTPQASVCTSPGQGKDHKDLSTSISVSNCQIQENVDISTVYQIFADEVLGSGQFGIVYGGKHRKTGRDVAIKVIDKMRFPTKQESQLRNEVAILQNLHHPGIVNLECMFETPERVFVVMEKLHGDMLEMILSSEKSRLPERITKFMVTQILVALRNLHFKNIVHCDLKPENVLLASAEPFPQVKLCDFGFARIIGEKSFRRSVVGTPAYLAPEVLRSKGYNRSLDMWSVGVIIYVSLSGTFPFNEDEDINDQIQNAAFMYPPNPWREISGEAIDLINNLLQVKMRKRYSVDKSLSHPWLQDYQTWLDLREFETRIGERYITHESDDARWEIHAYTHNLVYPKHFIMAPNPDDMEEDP
Procedure, shortened: as §2

STK33 = STK33 (Homo sapiens, UniProt Q9BYT3); parameters: KINOMEscan competition binding panel (Eurofins DiscoverX), single concentration, percent inhibition; conditions: read-out: 15 at 1 µM % inhibition
Sequence of STK33 (Q9BYT3 whole entry): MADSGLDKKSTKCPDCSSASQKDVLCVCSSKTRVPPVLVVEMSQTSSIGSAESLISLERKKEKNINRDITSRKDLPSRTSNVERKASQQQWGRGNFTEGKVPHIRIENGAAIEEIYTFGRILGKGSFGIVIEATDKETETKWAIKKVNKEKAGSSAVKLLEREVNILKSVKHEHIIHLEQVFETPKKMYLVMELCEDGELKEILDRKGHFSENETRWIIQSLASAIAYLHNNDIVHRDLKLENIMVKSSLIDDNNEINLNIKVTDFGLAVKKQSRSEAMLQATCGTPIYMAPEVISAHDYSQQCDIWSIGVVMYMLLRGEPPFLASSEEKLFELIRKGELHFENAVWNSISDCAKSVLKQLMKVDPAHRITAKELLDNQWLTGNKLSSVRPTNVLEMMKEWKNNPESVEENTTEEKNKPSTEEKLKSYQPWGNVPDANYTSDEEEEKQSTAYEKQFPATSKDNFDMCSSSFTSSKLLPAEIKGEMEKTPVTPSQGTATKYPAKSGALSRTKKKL
Procedure, shortened: as §2

SMILES: CNS(=O)(=O)c1ccc(N(C)C)c(Nc2ncnc3cc(OC)c(OC)cc23)c1 [compound 7, 3-((6,7-dimethoxyquinazolin-4-yl)amino)-4-(dimethylamino)-N-methylbenzenesulfonamide]
inhibition at 1 µM [1]: 73%
inhibition at 1 µM (ABL2): 0%
inhibition at 1 µM (ACVRL1): 0%
inhibition at 1 µM (EGFR(L858R)): 8%
inhibition at 1 µM (FGFR3): 0%
inhibition at 1 µM (INSR [2]): 17%
inhibition at 1 µM (IRAK1): 68%
inhibition at 1 µM (IRAK4): 56%
inhibition at 1 µM (LATS2): 0%
inhibition at 1 µM (LRRK2(G2019S)): 23%
inhibition at 1 µM (PIK3C2G): 20%
inhibition at 1 µM (PIK4CB): 14%
inhibition at 1 µM (PRKD2): 8%
inhibition at 1 µM (SIK2): 69%
inhibition at 1 µM (SRMS): 41%

inhibition at 1 µM (CIT): 4%
inhibition at 1 µM (DYRK1A): 15%
inhibition at 1 µM (INSR [3]): 11%
inhibition at 1 µM [4]: 0%
inhibition at 1 µM (MAP3K1): 27%
inhibition at 1 µM (NIK): 12%
inhibition at 1 µM (PAK7): 0%
inhibition at 1 µM (PRKD3): 0%
inhibition at 1 µM (STK33): 0%
SMILES: CNS(=O)(=O)c1ccc(N(C)C)c(Nc2nc(C)nc3cc(OC)c(OC)cc23)c1 [compound 15, 3-((6,7-dimethoxy-2-methylquinazolin-4-yl)amino)-4-(dimethylamino)-N-methylbenzenesulfonamide]
